Entries after “also recorded” stand apart in the source; their conditions may differ.
Legend:
Format in all cases: cell-based
[1] = test system: human hepatoma HepG2 cells; test: Synergistic effect with precursor L-cystine on intracellular glutathione level (L-cystine free D-MEM); conditions: 40 hours, FIG. 4
Procedure: (§1) The activity to increase intracellular glutathione level was determined by use of human hepatoma HepG2 cells. More specifically, HepG2 cells were cultured in RPMI1640 medium and added to a 96-well microplate at a density of 2.5×10^4 cells (100 μl) per well. After the HepG2 cells settled on the wall, 25 μl of each of the aforementioned samples was added and the mixture was cultured in a CO2 incubator for 48 hours. Thereafter, a culture solution was removed and the cells were washed once with phosphate buffered saline (PBS), 25 μl of a PBS solution containing 0.25 mM monochlorobimane was added and the mixture was allowed to stand in the CO2 incubator (37° C.) for 45 minutes. After the mixture was returned to room temperature, 75 μl of distilled water was added to the mixture to disperse it. The fluorescent intensity of the fluorescent substance produced by the reaction between Monochlorobimane and glutathione was measured at 355 nm/460 nm to observe a change in intracellular glutathione content.
Using human hepatoma HepG2 cells, the synergistic effect between rubrofusarin glycoside having the intracellular glutathione increasing activity and a precursor for synthesizing glutathione in vivo was investigated. […] Thereafter, intracellular glutathione levels were measured. […]

[2] = test system: human hepatoma HepG2 cells; test: Protective effect against t-butyl hydroperoxide (rate of surviving cells, WST-1 staining); conditions: HepG2, 10 μM in terms of rubrofusarin gentiobioside for 48 hours, then t-BHP 0 to 1 mM for 3 hours; β-naphthoflavone 6 μM; FIG. 3
Procedure: The method was similar to that in Example 5. Briefly, HepG2 cells were dispensed at a density of 2.5×10^4 cells (100 μl) per well of a microplate and allowed to settle thereto, and then, 25 μl of the concentrate diluted in RPMI1640 medium to a final concentration of 10 μM in terms of rubrofusarin gentiobioside was added. After culturing was performed for a further 48 hours, a peroxide, t-butyl hydroperoxide (t-BHP) was added so as to give a final concentration of 0 to 1 mM. The rate of surviving cells after 3 hours relative to that of the cells containing no test compound was compared with those containing comparative compounds, β-naphthoflavone (6 μM) and silibinin (10 μM). The rate of surviving cells was checked by WST-1 staining and calculated based on a control not containing t-BHP as being 100%.

[3] = test system: human hepatoma HepG2 cells; test: Cytotoxicity seen in the in-vitro HepG2 cell evaluation system; conditions: HepG2, 48 hours, up to 20 μM, compared with β-naphthoflavone
Procedure: (§2) Using human hepatoma HepG2 cells, time-dependent induction effect of rubrofusarin glycoside upon intracellular glutathione level was investigated. The procedure was similar to that of Example 1. Briefly, HepG2 cells were dispensed at a density of 2.5×10^4 cells (100 μl) per well of a microplate and allowed to settle thereto, and then, 25 μl of an evaluation sample diluted to a predetermined concentration in RPMI1640 medium was added. The cells were cultured for 0, 6, 12, 24, and 48 hours. As the evaluation sample, use was made of the concentrate (containing 10.2% (w/w) rubrofusarin gentiobioside) of the present invention prepared in accordance with the method shown in Example 4. […]
(§3) Using human hepatoma HepG2 cells, dose dependency of the effect of rubrofusarin glycoside upon intracellular glutathione level was investigated. […] After culturing for an additional 48 hours, the intracellular glutathione level was measured to be compared with that of the cells containing no test-compound or that of the cells containing comparative compound, β-naphthoflavone (purchased from Nacalai-tesque) or silibinin (purchased from Sigma Chemical). […]

[4] = test system: human hepatoma HepG2 cells; test: Intracellular glutathione level of HepG2 cells (monochlorobimane fluorescence)
Procedure: as §1
as §2, with “hours.” for “hours. As the evaluation sample, use was made of the concentrate (containing 10.2% (w/w) rubrofusarin gentiobioside) of the present invention prepared in accordance with the method shown in Example 4.”
as §3

SMILES	intracellular glutathione level with L-cystine alone ([1]; L-cystine at predetermined concentrations)	protective effect against t-BHP (rate of surviving cells) [2]	cytotoxicity in a high-concentration range [3]	activity to increase intracellular glutathione level (HPLC fraction) ([4]; HepG2, 48 hours culture, serial two-fold dilution, 4 dilution stages)	glutathione increasing activity, dose dependency ([4]; HepG2, 48 hours, final concentration 0 to 20 μM in terms of rubrofusarin gentiobioside, FIG. 2)	intracellular glutathione level, time course ([4]; HepG2, 0, 6, 12, 24, 48 hours, 1.25, 2.5, 5.0 μM in terms of rubrofusarin gentiobioside, relative to negative control = 100%, FIG. 1)	intracellular glutathione level in co-existence of L-cystine ([1]; 10 μM rubrofusarin glycoside plus L-cystine)
N[C@@H](CSSC[C@H](N)C(=O)O)C(=O)O [L-cystine]	increased as the concentration of L-cystine added increased	–	–	–	–	–	–
COc1cc(O[C@@H]2O[C@H](CO[C@@H]3O[C@H](CO)[C@@H](O)[C@H](O)[C@H]3O)[C@@H](O)[C@H](O)[C@H]2O)c2c(O)c3c(=O)cc(C)oc3cc2c1 [rubrofusarin glycoside, rubrofusarin 6-O-β-gentiobioside]	–	protecting HepG2 cells; also recorded: somewhat lower than that of β-naphthoflavone	lower	dose dependent and strong	increases in a dose-dependent manner; also recorded: equivalent to that of β-naphthoflavone	increases in a time-dependent manner	synergistically contribute to an increase; also recorded: acted synergistically

Source: patent US20060110474A1, “Rubrofusarin glycoside-containing composition” (Suntory Limited, priority 2002, published 2006)
